Molecules are shown by their SMILES. Bounds are passed on as bounds.

In patent US20230416240A1, “KAT6 TARGETING COMPOUNDS” (Prelude Therapeutics Incorporated, priority 2022, published 2023) one finds Dmax and DC50 data, which are given here for 14 molecules.

T1 sequence (Q92794 whole entry): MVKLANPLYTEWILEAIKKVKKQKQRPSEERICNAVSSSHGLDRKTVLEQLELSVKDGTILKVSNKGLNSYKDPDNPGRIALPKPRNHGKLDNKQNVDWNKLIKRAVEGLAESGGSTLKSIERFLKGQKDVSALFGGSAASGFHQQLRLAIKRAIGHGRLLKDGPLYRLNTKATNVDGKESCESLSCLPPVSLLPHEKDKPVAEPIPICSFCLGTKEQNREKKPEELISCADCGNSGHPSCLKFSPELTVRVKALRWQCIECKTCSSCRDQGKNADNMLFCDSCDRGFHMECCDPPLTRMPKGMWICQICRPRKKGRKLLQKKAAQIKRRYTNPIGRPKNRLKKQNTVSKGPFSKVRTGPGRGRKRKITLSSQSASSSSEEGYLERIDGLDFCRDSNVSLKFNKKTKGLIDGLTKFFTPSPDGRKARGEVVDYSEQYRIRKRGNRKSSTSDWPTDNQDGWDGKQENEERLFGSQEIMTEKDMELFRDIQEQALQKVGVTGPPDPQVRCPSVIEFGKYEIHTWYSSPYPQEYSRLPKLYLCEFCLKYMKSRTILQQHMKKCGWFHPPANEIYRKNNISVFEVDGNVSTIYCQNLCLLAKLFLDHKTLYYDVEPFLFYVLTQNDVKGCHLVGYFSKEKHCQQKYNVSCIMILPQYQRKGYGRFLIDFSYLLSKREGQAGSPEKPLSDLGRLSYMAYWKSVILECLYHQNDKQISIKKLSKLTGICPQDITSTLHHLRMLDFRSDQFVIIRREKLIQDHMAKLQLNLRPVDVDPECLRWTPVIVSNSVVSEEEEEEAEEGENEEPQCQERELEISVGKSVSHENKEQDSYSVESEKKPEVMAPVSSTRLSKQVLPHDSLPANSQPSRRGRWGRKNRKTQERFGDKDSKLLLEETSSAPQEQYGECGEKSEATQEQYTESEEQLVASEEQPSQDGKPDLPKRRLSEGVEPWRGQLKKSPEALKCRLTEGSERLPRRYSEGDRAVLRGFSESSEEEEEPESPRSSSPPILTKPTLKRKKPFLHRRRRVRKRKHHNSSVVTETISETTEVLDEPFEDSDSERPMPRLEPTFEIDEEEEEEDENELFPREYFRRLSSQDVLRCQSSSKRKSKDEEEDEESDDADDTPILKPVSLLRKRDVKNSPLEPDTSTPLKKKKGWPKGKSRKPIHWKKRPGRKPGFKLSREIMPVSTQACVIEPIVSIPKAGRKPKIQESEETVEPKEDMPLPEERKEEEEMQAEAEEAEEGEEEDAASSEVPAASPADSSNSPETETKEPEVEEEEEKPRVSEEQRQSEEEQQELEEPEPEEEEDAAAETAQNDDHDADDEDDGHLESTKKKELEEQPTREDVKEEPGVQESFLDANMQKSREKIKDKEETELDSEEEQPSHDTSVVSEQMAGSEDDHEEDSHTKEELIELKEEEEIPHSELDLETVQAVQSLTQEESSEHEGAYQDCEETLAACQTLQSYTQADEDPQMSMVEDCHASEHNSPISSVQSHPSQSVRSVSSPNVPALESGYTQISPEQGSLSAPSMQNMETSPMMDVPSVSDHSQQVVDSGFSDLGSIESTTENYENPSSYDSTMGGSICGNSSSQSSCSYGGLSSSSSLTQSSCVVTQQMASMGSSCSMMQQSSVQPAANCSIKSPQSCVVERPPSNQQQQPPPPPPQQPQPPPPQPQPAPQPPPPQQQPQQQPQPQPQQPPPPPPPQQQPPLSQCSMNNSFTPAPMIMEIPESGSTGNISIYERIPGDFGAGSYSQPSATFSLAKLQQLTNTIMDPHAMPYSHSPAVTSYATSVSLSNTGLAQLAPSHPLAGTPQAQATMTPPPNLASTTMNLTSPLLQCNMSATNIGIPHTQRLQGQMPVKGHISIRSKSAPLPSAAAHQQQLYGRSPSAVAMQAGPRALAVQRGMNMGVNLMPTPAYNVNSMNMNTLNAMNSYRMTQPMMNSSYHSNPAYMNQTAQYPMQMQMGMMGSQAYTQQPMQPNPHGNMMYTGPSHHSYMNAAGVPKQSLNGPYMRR

This assay has as its target T1, HiBit tagged KAT6A (Homo sapiens, UniProt Q92794).
T1 construct: host or cells: HeLa
As to the kind of experiment: HiBit KAT6A Degradation Assessment. To be noted: HeLa cells with HiBit tagged KAT6A, 18 h of treatment, 9-point serial dilution. Format: cell-based. How it is done:
The degradation activity of compounds was evaluated by measuring levels of KAT6A protein using the HiBiT system. These studies were conducted in HeLa cells with a HiBit tagged KAT6A. Cells were maintained in a 37° C. incubator at 5% CO2 in EMEM (ATCC, 30-2003) supplemented with 10% v/v FBS (Gibco, 26140-079) and 1% penicillin streptomycin. Cells were seeded in 384-well plates at a density of 2,000 cells/well. Compounds dissolved in DMSO were added in 9-point serial dilution. After 18 h of treatment, KAT6A levels were measured using the Nano-Glo® HiBiT Lytic Detection System (Promega catalog number N3030) per manufacturer's instructions. Luminescence signal was measured with a multimode plate reader (Envision 2105, Perkin Elmer). Luminescence values were normalized to background and DMSO controls to quantify KAT6A for each condition. Results were analyzed, and DC50 and Dmax values obtained using a four-parameter logistic curve fit.
What is called Dmax is the largest share of the target that was removed. Low readings indicate a partial loss of target, high ones a fuller loss of target. Consider `COc1cc(Cn2cccn2)cc2onc(NS(=O)(=O)c3cccc(N4CCN(CC5CCN(c6ccc(C(=O)NC7CCC(=O)NC7=O)nc6)CC5)CC4)c3)c12` (stereo not drawn) [Example 29, 5-(4-((4-(3-(N-(6-((1H-Pyrazol-1-yl)methyl)-4-methoxybenzo[d]isoxazol-3-yl)sulfamoyl)phenyl)piperazin-1-yl)methyl)piperidin-1-yl)-N-(2,6-dioxopiperidin-3-yl) picolinamide], for which the greatest degradation seen (Dmax) fell in the range of 25 to 50%. What is called DC50 is the concentration at which degradation of the target reaches its halfway point. The low end stands for degradation at low concentration, the high end for degradation only at high concentration. Take `COc1c(N2CC3(CCN(C[C@@H]4CCN(c5ccc6c(c5)C(=O)N(C5CCC(=O)NC5=O)C6=O)C4)CC3)C2)cccc1S(=O)(=O)Nc1noc2cc(Cn3cccn3)cc(OC)c12` (stereo partly drawn) [Example 30, N-(6-((1H-pyrazol-1-yl)methyl)-4-methoxybenzo[d]isoxazol-3-yl)-3-(7-(((3S)-1-(2-(2,6-dioxopiperidin-3-yl)-1,3-dioxoisoindolin-5-yl)pyrrolidin-3-yl)methyl)-2,7-diazaspiro[3.5]nonan-2-yl)-2-methoxybenzenesulfonamide]: the half-maximal degradation concentration (DC50) was less than 10 nM and the Dmax is greater than 75%. The corresponding values for `COc1cc(Cn2cccn2)cc2onc(NS(=O)(=O)c3cccc(N4CCN(CC5CCN(c6cccc7c6C(=O)N(C6CCC(=O)NC6=O)C7=O)C5)CC4)c3)c12` (stereo not drawn) [Example 31, N-(6-((1H-Pyrazol-1-yl)methyl)-4-methoxybenzo[d]isoxazol-3-yl)-3-(4-((1-(2-(2,6-dioxopiperidin-3-yl)-1,3-dioxoisoindolin-4-yl)pyrrolidin-3-yl)methyl)piperazin-1-yl)benzenesulfonamide] are 100 to 1000 nM and 50 to 75%. The corresponding values for `COc1cc(Cn2cccn2)cc2onc(NS(=O)(=O)c3cccc(N4CCN(CC5CCN(c6cccc7c6C(=O)N(C6CCC(=O)NC6=O)C7=O)CC5)CC4)c3)c12` (stereo not drawn) [Example 32, 3-[4-[[1-[2-(2,6-Dioxopiperidin-3-yl)-1,3-dioxoisoindol-4-yl]piperidin-4-yl]methyl]piperazin-1-yl]-N-[4-methoxy-6-(pyrazol-1-ylmethyl)-1,2-benzoxazol-3-yl]benzenesulfonamide] are 10 to 100 nM and 50 to 75%. The corresponding values for `COc1cc(Cn2cccn2)cc2onc(NS(=O)(=O)c3cccc(N4CC5(CCN(CC6CCN(c7ccc8c(c7)CN(C7CCC(=O)NC7=O)C8=O)C6)CC5)C4)c3)c12` (stereo not drawn) [Example 33, N-(6-((1H-pyrazol-1-yl)methyl)-4-methoxybenzo[d]isoxazol-3-yl)-3-(7-((1-(2-(2,6-dioxopiperidin-3-yl)-1-oxoisoindolin-5-yl)pyrrolidin-3-yl)methyl)-2,7-diazaspirononan-2-yl)benzenesulfonamide] are less than 10 nM and greater than 75%. For the molecule `COc1cc(Cn2cccn2)cc2onc(NS(=O)(=O)c3cccc(N4CC5(CCN(CC6CCN(c7ccc8c(c7)C(=O)N(C7CCC(=O)NC7=O)C8)C6)CC5)C4)c3)c12` (stereo not drawn) [Example 34, N-(6-((1H-pyrazol-1-yl)methyl)-4-methoxybenzo[d]isoxazol-3-yl)-3-(7-((1-(2-(2,6-dioxopiperidin-3-yl)-3-oxoisoindolin-5-yl)pyrrolidin-3-yl)methyl)-2,7-diazaspirononan-2-yl)benzenesulfonamide], the DC50 was less than 10 nM and the Dmax fell in the range of 50 to 75%. The molecule `COc1cc(Cn2cccn2)cc2onc(NS(=O)(=O)c3cccc(N4CC5(CCN(C[C@H]6CCN(c7ccc8c(c7)C(=O)N(C7CCC(=O)NC7=O)C8=O)C6)CC5)C4)c3)c12` (stereo partly drawn) [Example 35, N-(6-((1H-pyrazol-1-yl)methyl)-4-methoxybenzo[d]isoxazol-3-yl)-3-(7-(((3R)-1-(2-(2,6-dioxopiperidin-3-yl)-1,3-dioxoisoindolin-5-yl)pyrrolidin-3-yl)methyl)-2,7-diazaspiro[3.5]nonan-2-yl)benzenesulfonamide] yielded a half-maximal degradation concentration (DC50) of less than 10 nM and a Dmax of 50 to 75%.

For `COc1cc(Cn2cccn2)cc2onc(NS(=O)(=O)c3cccc(N4CCC(NC[C@@H]5CCN(c6ccc7c(c6)CN([C@H]6CCC(=O)NC6=O)C7=O)C5)CC4)c3)c12` [Example 36, N-(6-((1H-pyrazol-1-yl)methyl)-4-methoxybenzo[d]isoxazol-3-yl)-3-(4-((((S)-1-(2-((S)-2,6-dioxopiperidin-3-yl)-1-oxoisoindolin-5-yl)pyrrolidin-3-yl)methyl)amino)piperidin-1-yl)benzenesulfonamide], the 50% degradation concentration (DC50) was in the range of 10 to 100 nM and the Dmax is greater than 75%.

Molecule `COc1cc(Cn2cccn2)cc2onc(NS(=O)(=O)c3cccc(N(C)C4CCN(C[C@@H]5CCN(c6ccc7c(c6)CN([C@H]6CCC(=O)NC6=O)C7=O)C5)CC4)c3)c12` [Example 37, N-(6-((1H-Pyrazol-1-yl)methyl)-4-methoxybenzo[d]isoxazol-3-yl)-3-((1-(((S)-1-(2-((S)-2,6-dioxopiperidin-3-yl)-1-oxoisoindolin-5-yl)pyrrolidin-3-yl)methyl)piperidin-4-yl)(methyl)amino)benzenesulfonamide] returned a DC50 of less than 10 nM and a maximal degradation (Dmax) of 50 to 75%. Molecule `COc1cc(Cn2cccn2)cc2onc(NS(=O)(=O)c3cccc(NC4CCN(C[C@@H]5CCN(c6ccc7c(c6)CN([C@H]6CCC(=O)NC6=O)C7=O)C5)CC4)c3)c12` [Example 38, N-(6-((1H-Pyrazol-1-yl)methyl)-4-methoxybenzo[d]isoxazol-3-yl)-3-((1-(((S)-1-(2-((S)-2,6-dioxopiperidin-3-yl)-1-oxoisoindolin-5-yl)pyrrolidin-3-yl)methyl)piperidin-4-yl)amino)benzenesulfonamide] came in with a DC50 of 10 to 100 nM and a Dmax of 50 to 75%. The corresponding values for `COc1cc(Cn2cccn2)cc2onc(NS(=O)(=O)c3cccc(N4CCC5(CCN(C[C@@H]6CCN(c7ccc8c(c7)CN(C7CCC(=O)NC7=O)C8=O)C6)CC5)CC4)c3)c12` (stereo partly drawn) [Example 39, N-(6-((1H-Pyrazol-1-yl)methyl)-4-methoxybenzo[d]isoxazol-3-yl)-3-(9-(((3S)-1-(2-(2,6-dioxopiperidin-3-yl)-1-oxoisoindolin-5-yl)pyrrolidin-3-yl)methyl)-3,9-diazaspiro[5.5]undecan-3-yl)benzenesulfonamide] are less than 10 nM and greater than 75%. The corresponding values for `COc1cc(Cn2cccn2)cc2onc(NS(=O)(=O)c3cccc(N4C[C@@H]5CN(C[C@@H]6CCN(c7ccc8c(c7)CN([C@H]7CCC(=O)NC7=O)C8=O)C6)C[C@H]5C4)c3)c12` [Example 40, N-(6-((1H-Pyrazol-1-yl)methyl)-4-methoxybenzo[d]isoxazol-3-yl)-3-((3aS,6aS)-5-(((S)-1-(2-((S)-2,6-dioxopiperidin-3-yl)-1-oxoisoindolin-5-yl)pyrrolidin-3-yl)methyl)hexahydropyrrolo[3,4-c]pyrrol-2(1H)-yl)benzenesulfonamide] are less than 10 nM and greater than 75%.

In turn, `COc1ccc(N2CC3(CCN(CC4CCN(c5ccc6c(c5)C(=O)N(C5CCC(=O)NC5=O)C6=O)C4)CC3)C2)cc1S(=O)(=O)Nc1noc2cc(Cn3cccn3)cc(OC)c12` (stereo not drawn) [Example 41, N-(6-((1H-pyrazol-1-yl)methyl)-4-methoxybenzo[d]isoxazol-3-yl)-5-(7-((1-(2-(2,6-dioxopiperidin-3-yl)-1,3-dioxoisoindolin-5-yl)pyrrolidin-3-yl)methyl)-2,7-diazaspiro[3.5]nonan-2-yl)-2-methoxybenzenesulfonamide] showed a DC50 of less than 10 nM and a Dmax of 50 to 75%. `COc1cc(Cn2cccn2)cc2onc(NS(=O)(=O)c3cccc(N4CCN(CC5CN(c6ccc7c(c6)C(=O)N(C6CCC(=O)NC6=O)C7=O)C5)CC4)c3)c12` (stereo not drawn) [Example 42, N-(6-((1H-pyrazol-1-yl)methyl)-4-methoxybenzo[d]isoxazol-3-yl)-3-(4-((1-(2-(2,6-dioxopiperidin-3-yl)-1,3-dioxoisoindolin-5-yl)azetidin-3-yl)methyl)piperazin-1-yl)benzenesulfonamide] yielded a DC50 of 10 to 100 nM and a Dmax of 50 to 75%.
